PMC4254195 (European journal of medicinal chemistry, 2014)

Molecular target: T1, PTP1B (Homo sapiens, UniProt P18031)
T1 sequence (P18031 1-435): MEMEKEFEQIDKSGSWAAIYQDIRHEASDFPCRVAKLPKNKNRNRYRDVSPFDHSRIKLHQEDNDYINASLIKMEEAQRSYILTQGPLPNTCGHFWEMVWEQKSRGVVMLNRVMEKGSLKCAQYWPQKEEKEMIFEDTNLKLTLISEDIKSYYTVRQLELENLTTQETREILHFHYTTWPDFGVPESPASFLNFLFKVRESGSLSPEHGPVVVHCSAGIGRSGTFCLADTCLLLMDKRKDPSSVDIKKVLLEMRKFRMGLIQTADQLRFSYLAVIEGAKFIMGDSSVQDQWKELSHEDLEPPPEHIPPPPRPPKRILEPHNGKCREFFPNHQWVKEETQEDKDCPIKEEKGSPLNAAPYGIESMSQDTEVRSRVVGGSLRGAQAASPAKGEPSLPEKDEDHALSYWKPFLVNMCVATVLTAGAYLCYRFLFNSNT
Experiment: competition with BiPhYn-1 labelling of PTP1B in cells
Format: cell-based

Q: How did the “competition with BiPhYn-1 labelling of PTP1B in cells” value turn out when `C=CS(=O)(=O)c1ccccc1` [PVSF, phenyl vinyl sulfone] was run?
A: exhibited loss of detection of oxidized PTP1B with BiPhYn-1 in the presence of increasing concentrations of PVSF
